Where a SMILES comes first, the peptide text is derived from it. Bridges are numbered along the chain shown (N, C = ends). [ ]: non-standard residue; d: D form. The star is where a group is joined. d(aIle) = CC[C@H](C)[C@@H](N)C(=O)O; d(aThr) = C[C@@H](O)[C@@H](N)C(=O)O; Hexanoyl(5-Me) = CC(C)CCCC(=O)*; Myristoyl = CCCCCCCCCCCCCC(=O)*; Orn = NCCC[C@H](N)C(=O)O; Dhb = C/C=C(\N)C(=O)O
Experiments:
Format in all cases: cell-based, human
SK-OV-3 = assay: SRB colorimetric assay of cell growth and viability, SK-OV-3; conditions: 48 hours exposure; for GI50: read-out: GI50 SKOV-3; for CC50: read-out: LC50 SKOV-3
Description: The finality of this assay is to interrupt the growth of a “in vitro” tumor cell culture by means a continued exhibition of the cells to the sample to be testing.
A colorimetric type of assay, using sulforhodamine B (SRB) reaction has been adapted for a quantitative measurement of cell growth and viability [following the technique described by Philip Skehan, et al. (1990), New colorimetric cytotoxicity assay for anticancer drug screening, J. Natl. Cancer Inst., 82:1107-1112].
This form of the assay employs 96 well cell culture microplates of 9 mm diameter (Faircloth, 1988; Mosmann, 1983). Most of the cell lines are obtained from American Type Culture Collection (ATCC) derived from different human cancer types.
Cells are maintained in RPMI 1640 10% FBS, supplemented with 0.1 g/l penicillin and 0.1 g/l streptomycin sulfate and then incubated at 37° C., 5% CO2 and 98% humidity. For the experiments, cells were harvested from subconfluent cultures using trypsin and resuspended in fresh medium before plating.
Cells are seeded in 96 well microtiter plates, at 5×10^3 cells per well in aliquots of 195 μL medium, and they are allowed to attach to the plate surface by growing in drug free medium for 18 hours. Afterward, samples are added in aliquots of 5 μL in a ranging from 10 to 10^−8 μg/mL, dissolved in DMSO:EtOH:PBS (0.5:0.5:99). After 48 hours exposure, the antitumor effect are measured by the SRB methodology: cells are fixed by adding 50 μL of cold 50% (wt/vol) trichloroacetic acid (TCA) and incubating for 60 minutes at 4° C. Plates are washed with deionized water and dried. One hundred μL of SRB solution (0.4% wt/vol in 1% acetic acid) is added to each microtiter well and incubated for 10 minutes at room temperature. Unbound SRB is removed by washing with 1% acetic acid. Plates are air dried and bound stain is solubilized with Tris buffer. Optical densities are read on a automated spectrophotometric plate reader at a single wavelength of 490 nm.
The values for mean+/− SD of data from triplicate wells are calculated. Some parameters for cellular responses can be calculated: GI=growth inhibition, TGI=total growth inhibition (cytostatic effect) and LC=cell killing (cytotoxic effect).

DU-145 = assay: SRB colorimetric assay of cell growth and viability, DU-145; conditions: 48 hours exposure
IGROV-ET = assay: SRB colorimetric assay of cell growth and viability, IGROV-ET; conditions: 48 hours exposure; for CC50: read-out: LC50 IGROV-ET
LoVo-Dox = assay: SRB colorimetric assay of cell growth and viability, LoVo-Dox; conditions: 48 hours exposure; for CC50: read-out: LC50 LOVO-DOX
Outline: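 First, 5×10^3 cells per well attach for 18 hours in RPMI 1640 with 10% FBS at 37° C and 5% CO2. Next, samples spanning 10 to 10^−8 μg/mL are added for 48 hours. Finally, cells are fixed with TCA, stained with SRB for 10 minutes and read at 490 nm.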

A-549 = assay: SRB colorimetric assay of cell growth and viability, A-549; conditions: 48 hours exposure; for GI50: read-out: GI50 A-549; for CC50: read-out: LC50 A-549
HT-29 = assay: SRB colorimetric assay of cell growth and viability, HT-29; conditions: 48 hours exposure; for GI50: read-out: GI50 HT-29; for CC50: read-out: LC50 HT-29
LNCaP = assay: SRB colorimetric assay of cell growth and viability, LNCaP; conditions: 48 hours exposure; for GI50: read-out: GI50 LN-caP; for CC50: read-out: LC50 LN-caP
K-562 = assay: SRB colorimetric assay of cell growth and viability, K-562; conditions: 48 hours exposure; for CC50: read-out: LC50 K-562
PANC-1 = assay: SRB colorimetric assay of cell growth and viability, PANC-1; conditions: 48 hours exposure; for CC50: read-out: LC50 PANC-1
SK-MEL-28 = assay: SRB colorimetric assay of cell growth and viability, SK-MEL-28; conditions: 48 hours exposure; for CC50: read-out: LC50 MEL-28
LoVo = assay: SRB colorimetric assay of cell growth and viability, LoVo; conditions: 48 hours exposure; for CC50: read-out: LC50 LOVO
IGROV-1 = assay: SRB colorimetric assay of cell growth and viability, IGROV-1; conditions: 48 hours exposure

Compound	TGI SKOV-3 (SK-OV-3) [Molar]	GI50 (SK-OV-3) [µM]	CC50 (SK-OV-3) [µM]	GI50 (DU-145) [µM]	LC50 (concentration causing 50% net cell kill) (DU-145) [µM]	TGI DU-145 (DU-145) [Molar]	GI50 (IGROV-ET) [µM]	TGI IGROV-ET (IGROV-ET) [Molar]	CC50 (IGROV-ET) [µM]	GI50 (LoVo-Dox) [µM]	TGI LOVO-DOX (LoVo-Dox) [Molar]	TGI A-549 (A-549) [Molar]	GI50 (A-549) [µM]	CC50 (A-549) [µM]	TGI HT-29 (HT-29) [Molar]	GI50 (HT-29) [µM]	CC50 (HT-29) [µM]	TGI LN-caP (LNCaP) [Molar]	GI50 (LNCaP) [µM]	CC50 (LNCaP) [µM]	also measured
C/C=C1\NC(=O)[C@H](Cc2ccccc2)NC(=O)[C@@H](C(C)C)NC(=O)[C@@H]([C@@H](C)CC)NC(=O)[C@H](NC(=O)[C@H](NC(=O)[C@H](CCCN)NC(=O)[C@H]2CCCN2C(=O)[C@H](NC(=O)CCCCCCCCCCCCC)C(C)C)[C@@H](C)CC)[C@@H](C)OC(=O)[C@H](C(C)C)NC1=O [Compound 32, [noVal^11, noThr^12, noD-Val^13, Mst^14]-KF] (Myristoyl-[dV][dP][Orn][d(aIle)][d(aThr)][d(aIle)][dV]F[Dhb]V; ester 5-C)	6.27E−06	2.34	7.83	2.12	6.81	3.80E−06	2.06	3.26E−06	5.16	2.15	3.66E−06	7.83E−06	5.19	7.83	7.83E−06	7.66	7.83	3.08E−06	1.42	6.67	CC50 (LoVo-Dox): 6.21 µM; GI50 (K-562): 1.91 µM; TGI K-562 (K-562): 4.21E−06 Molar; CC50 (K-562): 7.83 µM; GI50 (PANC-1): 1.78 µM; TGI PANC-1 (PANC-1): 3.12E−06 Molar; CC50 (PANC-1): 5.49 µM; GI50 (SK-MEL-28): 2.08 µM; TGI MEL-28 (SK-MEL-28): 3.63E−06 Molar; CC50 (SK-MEL-28): 6.34 µM; GI50 (LoVo): 7.83 µM; TGI LOVO (LoVo): 7.83E−06 Molar; CC50 (LoVo): 7.83 µM; GI50 (IGROV-1): 2.29 µM; LC50 (concentration causing 50% net cell killing) (IGROV-1): 5.51 µM; TGI IGROV (IGROV-1): 3.56E−06 Molar
C/C=C1\NC(=O)[C@H](Cc2ccccc2)NC(=O)[C@@H](C(C)C)NC(=O)[C@@H]([C@@H](C)CC)NC(=O)[C@H](NC(=O)[C@H](NC(=O)[C@H](CCC(=O)O)NC(=O)[C@H]2CCCN2C(=O)[C@H](NC(=O)[C@@H](NC(=O)[C@@H](NC(=O)[C@H](NC(=O)CCCC(C)C)C(C)C)[C@@H](C)O)C(C)C)C(C)C)[C@@H](C)CC)[C@@H](C)OC(=O)[C@H](C(C)C)NC1=O [Compound 4, [Glu^8]-KF] ({Hexanoyl(5-Me)}-[dV]TV[dV][dP]E[d(aIle)][d(aThr)][d(aIle)][dV]F[Dhb]V; ester 8-C)	5.85E−07	0.195	2.26	1.03	3.88	2.00E−06	0.817	1.69E−06	3.52	0.757	1.77E−06	4.02E−06	1.77	6.7	2.00E−06	0.884	4.55	1.19E−06	0.371	3.62	CC50 (LoVo-Dox): 4.15 µM; GI50 (K-562): 2.11 µM; TGI K-562 (K-562): 5.10E−06 Molar; CC50 (K-562): 6.7 µM; GI50 (PANC-1): 1.82 µM; TGI PANC-1 (PANC-1): 3.46E−06 Molar; CC50 (PANC-1): 6.6 µM; GI50 (SK-MEL-28): 2.95 µM; TGI MEL-28 (SK-MEL-28): 6.70E−06 Molar; CC50 (SK-MEL-28): 6.7 µM; GI50 (LoVo): 0.348 µM; TGI LOVO (LoVo): 6.45E−07 Molar; CC50 (LoVo): 2.65 µM; GI50 (IGROV-1): 0.49 µM; LC50 (concentration causing 50% net cell killing) (IGROV-1): 3.31 µM; TGI IGROV (IGROV-1): 1.29E−06 Molar
C/C=C1\NC(=O)[C@H](Cc2ccccc2)NC(=O)[C@@H](C(C)C)NC(=O)[C@@H]([C@@H](C)CC)NC(=O)[C@H](NC(=O)[C@H](NC(=O)[C@H](CCCN)NC(=O)[C@H]2CCCN2C(=O)[C@H](NC(=O)CCCC(C)C)C(C)C)[C@@H](C)CC)[C@@H](C)OC(=O)[C@H](C(C)C)NC1=O [Compound 31, [noVal^11, noThr^12, noD-Val^13]-KF] ({Hexanoyl(5-Me)}-[dV][dP][Orn][d(aIle)][d(aThr)][d(aIle)][dV]F[Dhb]V; ester 5-C)	5.03E−06	2.21	8.49	3.3	8.49	6.37E−06	2.69	4.07E−06	6.18	2.38	4.00E−06	8.49E−06	5.91	8.49	8.49E−06	8.49	8.49	3.79E−06	1.94	7.39	CC50 (LoVo-Dox): ≥ 6.75 µM; GI50 (K-562): 2.21 µM; TGI K-562 (K-562): 4.26E−06 Molar; CC50 (K-562): 8.18 µM; GI50 (PANC-1): 2.12 µM; TGI PANC-1 (PANC-1): 3.63E−06 Molar; CC50 (PANC-1): 6.23 µM; GI50 (SK-MEL-28): 4.21 µM; TGI MEL-28 (SK-MEL-28): 8.49E−06 Molar; CC50 (SK-MEL-28): 8.49 µM; GI50 (LoVo): 8.49 µM; TGI LOVO (LoVo): 8.49E−06 Molar; CC50 (LoVo): 8.49 µM; GI50 (IGROV-1): 2.69 µM; LC50 (concentration causing 50% net cell killing) (IGROV-1): 6.25 µM; TGI IGROV (IGROV-1): 4.10E−06 Molar
C/C=C1\NC(=O)[C@H](Cc2ccccc2)NC(=O)[C@@H](C(C)C)NC(=O)[C@@H]([C@@H](C)CC)NC(=O)[C@H](NC(=O)[C@H](NC(=O)[C@H](CCCN)NC(=O)[C@H]2CCCN2C(=O)[C@H](NC(=O)[C@@H](NC(=O)[C@@H](NC(=O)[C@H](NC(=O)CCCCC(C)(F)F)C(C)C)[C@@H](C)O)C(C)C)C(C)C)[C@@H](C)CC)[C@@H](C)OC(=O)[C@H](C(C)C)NC1=O [Compound 28, [6,6-dFHep^14]-KF]	3.36E−07	0.145	1.01	0.215	2.09	5.59E−07	0.228	3.59E−07	0.568	0.172	3.18E−07	1.04E−06	0.328	4.25	1.54E−06	0.649	3.63	1.09E−06	0.363	3.1	GI50 (K-562): 1.88 µM; TGI K-562 (K-562): 2.99E−04 Molar; CC50 (K-562): 4.75 µM; GI50 (PANC-1): 1.48 µM; TGI PANC-1 (PANC-1): 2.52E−06 Molar; CC50 (PANC-1): 4.3 µM; GI50 (SK-MEL-28): 1.47 µM; TGI MEL-28 (SK-MEL-28): 2.55E−06 Molar; CC50 (SK-MEL-28): 4.41 µM; GI50 (LoVo): 0.196 µM; TGI LOVO (LoVo): 3.70E−07 Molar; CC50 (LoVo): 0.872 µM; GI50 (IGROV-1): 0.334 µM; LC50 (concentration causing 50% net cell killing) (IGROV-1): 2.55 µM; TGI IGROV (IGROV-1): 7.86E−07 Molar

Source: patent US20070117743A1, “New antitumoral compounds” (priority 2003, published 2007)
